Reference: US5101072A, “Sulfonylhydrazines and their use as antineoplastic agents and as antitrypanosomal agents” (Yale University, priority 1989, dated 1992)

Tests used:
P388 leukemia = assay: % T/C and 60-day cures vs. P388 leukemia; type: in vivo, mice; conditions: 60 mg/kg/day
Method: (§1) ^c % T/C = average survival time of treated/control animals ×
^d % T/C vs. P388 leukemia = 218 (80% 60day cures) at 60 mg/kg/day

L1210 leukemia = assay: Survival time of mice bearing the L1210 leukemia; type: in vivo; conditions: for 60-day cures, % / % T/C (average survival time of treated/control animals × 100): L1210, at optimum effective daily dose, once daily × 6 days
Method: The tumor-inhibitory properties of several compounds, e.g., 1,2-bis(methylsulfonyl)-1-methylhydrazine, 1-methyl-1,2,2-tris(methylsulfonyl)hydrazine, 1,2-bis(methylsulfonyl)-1,2-dimethylhydrazine and 1-(2-chloroethyl)-1,2,2-tris(methylsulfonyl)hydrazine were determined by measuring the effects of these agents on the survival time of mice bearing the L1210 leukemia as described by K. Shyam, L. A. Cosby, and A. C. Sartorelli, J. Med. Chem., 28, 525-527 (1985).
^a Administered once daily for 6 consecutive days, beginning 24 hours
after tumor transplantation with 5-10 animals being used per group.
^b Average change in body weight from onset to termination of therapy
as §1

Lethality in normal mice = type: in vivo
Method: A single intraperitoneal dose of 1.2 g/kg or six daily intraperitoneal doses of 200 mg/kg of MeSO2 N(CH2 CH2 Cl)N(SO2 Me)2 produced no lethality in normal mice. Thus, the relatively great efficacy of this compound against the L1210 and P-388 leukemias and its relative lack of toxicity makes it an agent of significant promise.

[1] = system: T. rhodesiense (Y Tat 1.1); assay: Survival time of CD-1 mice infected with T. rhodesiense (trypanocidal activity); type: in vivo, T. rhodesiense (Y Tat 1.1); CD-1 mice
Method: The trypanocidal properties of several methylating agents including MeSO2 N(Me)N(SO2 Me)2 and MeSO2 N(Me)N(Me)SO2 Me were determined by measuring their effects on the survival time of CD-1 mice infected with T. rhodesiense (Y Tat 1.1), a pleimorphic strain that produces a non-relapsing disease in mice. The level of parasites in the bloodstream and body fluids increases by approximately 10-fold per day and the animals die when the parasite burden exceeds 1 to 2×10^9 cells/ml. Infection with a single viable parasite will kill a mouse in approximately 9 to 10 days.
Mice were infected ip with approximately 10^6 trypanosomes/mouse in phosphate buffered saline containing glucose. This level of parasites produces death in 4 days post-infection. These mice were treated (ip) with a single dose of drug dissolved in the appropriate vehicle 3 days after infection, when the parasitemia was 1 to 3×10^8 cells/ml of blood and the mice, if untreated, would survive for only 24 additional hours. The number of days the mice survived beyond that of the untreated controls was used as a measure of trypanocidal activity. The level of parasitemia in treated mice was measured at regular intervals to distinguish between parasite-related and drug toxicity-related deaths. No toxic deaths were observed. Mice that survived for 30 days without detectable parasitemias were considered cured. The effects of a single dose of various methylating agents on the survival time of trypanosome-bearing mice are summarized in Table II.
^a Drug that was administered was dissolved in 0.5 ml of phosphate
buffered saline containing glucose.
^b Drug that was administered was dissolved in 0.05 ml of DMSO.

[2] = Hydrolysis / decomposition in aqueous solution; type: physicochemical; conditions: 50 μM solution, phosphate buffered saline (pH 7.6), 37° C.
Method: In the case of 1,2,2-tris(methylsulfonyl)-1-methylhydrazine, this reaction occurs slowly. A 50 μM solution of this compound hydrolyzes at an initial rate of 1% per minute in phosphate buffered saline (pH 7.6) at 37° C.
Hydrolysis is expected to occur preferentially at N-2 to generate the 1,2-bis(sulfonyl)-1-methylhydrazine. The sulfonic acid and 1,2-bis(sulfonyl)-1-methylhydrazine that are generated are both ionized under these conditions. The release of protons can be used to follow the decomposition of these and related compounds. The release of protons can be assayed by following the decrease in absorbance at 560 nm of a weakly buffered (1 mM potassium phosphate) phenol red (21 mg/l) solution; initial pH 7.6 at 37° C. The assay can be calibrated using HCl standards.
(§2) The reaction of 1,2-bis(sulfonyl)-1-methylhydrazine with water at pH 7.4-7.6 at 37° C. can be followed by proton release and/or methanol generation. Methanol generation can be assayed using alcohol oxidase and measuring the resultant O2 consumption using a Gilson oxygraph. This assay can be calibrated using methanol standards. The reaction of 1,2-bis(sulfonyl)-1-methylhydrazine with water is relatively fast [a 50 μM solution of 1,2-bis(methylsulfonyl)-1-methylhydrazine decomposes at an initial rate of 12-15% per minute in phosphate buffered saline (pH 7.6) at 37° C.] compared to the hydroylsis of 1,2,2-tris(methylsulfonyl)-1-methylhydrazine. RSO2 N=NMe may also decompose by a free radical mechanism to a smaller extent and methylate by the generation of methyl radicals.

T. rhodesiense = assay: Oral trypanocidal activity (preliminary); type: in vivo, T. rhodesiense; mice; conditions: aqueous solutions, preliminary results
Text: Orally active trypanocidal agents are desirable since, in areas where trypanosomiasis is endemic, other routes of drug administration frequently present problems.

[3] = Methanol generation in vitro (spontaneous breakdown to generate reactive methyl groups); type: physicochemical; conditions: relative; PhSO2 N(Me)NHSO2 Ph = 1.0
Method: as §2
Methanol was produced by these agents in aqueous solutions free from strong competing nucleophiles. Formation of this alcohol was used as a measure of the rate of spontaneous breakdown of these compounds to generate reactive methyl groups. […] These findings provide strong evidence that methylation is essential for the observed biological activity of these compounds.

[4] = mice bearing L1210, at optimum effective daily dose
[5] = single ip dose 0.2 mmol/kg in 0.05 ml of DMSO

| Structure (SMILES) | 60-day cures, % (L1210 leukemia) [%] | AvΔ Wt, % (average change in body weight from onset to termination of therapy) (L1210 leukemia; [4]) | % T/C (average survival time of treated/control animals × 100) (L1210 leukemia) [%] | Mean Extension of Life [1, 5] [days] | also measured |
| --- | --- | --- | --- | --- | --- |
| CS(=O)(=O)N(CCCl)N(S(C)(=O)=O)S(C)(=O)=O [MeSO2 N(CH2 CH2 Cl)N(SO2 Me)2, 1-(2-chloroethyl)-1,2,2-tris(methylsulfonyl)hydrazine] | 100 | -7.2% | – | – | 60-day cures vs. P388 leukemia (P388 leukemia): 80%; % T/C vs. P388 leukemia (P388 leukemia): 218%; 60-day "cures" of the L1210 leukemia (L1210 leukemia; 40 and 60 mg/kg per day×6): 60-day "cures" of the L1210 leukemia; Activity against the L1210 leukemia (in words) (L1210 leukemia; mouse, in vivo): exceedingly active; Lethality in normal mice (Lethality in normal mice; single intraperitoneal dose of 1.2 g/kg): no lethality; Lethality in normal mice (Lethality in normal mice; six daily intraperitoneal doses of 200 mg/kg): no lethality |
| Cc1ccc(S(=O)(=O)N(CCCl)N(S(C)(=O)=O)S(C)(=O)=O)cc1 [Me-4-C6 H 4 SO2 N(CH2 CH2 Cl)N(SO2 Me)2, 2,2-bis(methylsulfonyl)-1-(2-chloroethyl)-1-(4-toluenesulfonyl)hydrazine] | 60 | -12.0% | 215 | – | – |
| CS(=O)(=O)N(N(CCCl)S(=O)(=O)c1ccc(Cl)cc1)S(C)(=O)=O [Cl-4-C6 H4 SO2 N(CH2 CH2 Cl)N(SO2 Me)2, 2,2-Bis(methylsulfonyl)-1-(2-chloroethyl)-1-[(4-chlorophenyl)sulfonyl]hydrazine] | 60 | -3.4% | 203 | – | – |
| CCNNCC [EtNHNHEt] | – | – | – | – | Mean Extension of Life ([1]; single ip dose 0.2 mmol/kg in 0.5 ml phosphate buffered saline containing glucose): 0 days |
| COS(C)(=O)=O [MeSO2 OMe] | – | – | – | 1.0 | – |
| CS(=O)(=O)N(N(CCCl)S(=O)(=O)c1ccc(Br)cc1)S(C)(=O)=O [Br-4-C6 H4 SO2 N(CH2 CH2 Cl)N(SO2 Me)2, 2,2-Bis(methylsulfonyl)-1-[(4-bromophenyl)sulfonyl]-1-(2-chloroethyl)hydrazine] | 60 | +0.9% | 241 | – | – |
| CN(N(S(C)(=O)=O)S(C)(=O)=O)S(C)(=O)=O [MeSO2 N(Me)N(SO2 Me)2, 1-Methyl-1,2,2-tris(methylsulfonyl)hydrazine] | 0 | – | 186 | 7.7 | cure (30 days without detectable parasitemias) ([1]; single ip dose 1.0 mmol/kg in 0.05 ml of DMSO): 100%; Initial rate of hydrolysis / decomposition [2]: 1 % per minute; AvΔ Wt, % (average change in body weight from onset to termination of therapy) (L1210 leukemia; mouse, in vivo): -7.7%; Trypanocidal activity on oral administration compared with Table II (T. rhodesiense): comparable activity to that reported in Table II |
| CS(=O)(=O)N(N(CCCl)S(=O)(=O)c1ccccc1)S(C)(=O)=O [C6 H5 SO2 N(CH2 CH2 Cl)N(SO2 Me)2, 2,2-bis(methylsulfonyl)-1-(2-chloroethyl)-1-phenylsulfonylhydrazine] | 40 | +0.5% | 187 | – | – |
| CNN [MeNHNH2, methylhydrazine] | – | – | – | – | Mean Extension of Life ([1]; single ip dose 0.5 mmol/kg in 0.5 ml phosphate buffered saline containing glucose): 1 days |
| COc1ccc(S(=O)(=O)NN(C)S(C)(=O)=O)cc1 [MeSO2 N(Me)NHSO2 C6 H4 -p-OMe] | – | – | – | 4.5 | – |
| CN(NS(=O)(=O)c1ccccc1)S(=O)(=O)c1ccccc1 [PhSO2 N(Me)NHSO2 Ph] | – | – | – | 5.0 | Mean Extension of Life (Table III) ([1]; administered in 0.05 ml of DMSO, dose not given): 5 days; Relative Methanol Generation in vitro [3]: 1.0 |
| CS(=O)(=O)OCCN(N(S(C)(=O)=O)S(C)(=O)=O)S(C)(=O)=O [MeSO2 N(CH2 CH2 OSO2 Me)N(SO2 Me)2, 1-(2-methylsulfonyloxy)ethyl-1,2,2-tris(methylsulfonyl)hydrazine] | 0 | – | 198 | – | AvΔ Wt, % (average change in body weight from onset to termination of therapy) (L1210 leukemia; mouse, in vivo): -4.2% |
